Test results reported in PMC7926793, “Synthesis and Biological Evaluation of 1-(Diarylmethyl)-1H-1,2,4-triazoles and 1-(Diarylmethyl)-1H-imidazoles as a Novel Class of Anti-Mitotic Agent for Activity in Breast Cancer” (Pharmaceuticals, 2021).
Like-named read-outs stand apart in the source and are kept apart here.

Tests used:
[1] = test system: UACC-62; assay: NCI 60 cell line screen (Melanoma); type: cell-based, human
[2] = test system: SR; assay: NCI 60 cell line screen (Leukemia); type: cell-based, human
[3] = test system: OVCAR-3; assay: NCI 60 cell line screen (Ovarian Cancer); type: cell-based, human
[4] = test system: A549/ATCC; assay: NCI 60 cell line screen (Non-Small Cell Lung Cancer); type: cell-based, human
[5] = test system: HS 578T; assay: NCI 60 cell line screen (Breast Cancer); type: cell-based, human
[6] = test system: LOX IMV1; assay: NCI 60 cell line screen (Melanoma); type: cell-based, human
[7] = test system: HT29; assay: NCI 60 cell line screen (Colon Cancer); type: cell-based, human
[8] = test system: KM12; assay: NCI 60 cell line screen (Colon Cancer); type: cell-based, human
[9] = test system: U251 (AC in Table 3); assay: NCI 60 cell line screen (CNS Cancer); type: cell-based, human
[10] = toxicity evaluation, alamarBlue assay; type: cell-based, human; conditions: human, MCF-10A cells
[11] = test system: PC-3; assay: NCI 60 cell line screen (Prostate cancer); type: cell-based, human
[12] = test system: SF295; assay: NCI 60 cell line screen (CNS Cancer); type: cell-based, human
[13] = test system: SN12C; assay: NCI 60 cell line screen (Renal Cancer); type: cell-based, human
[14] = test system: CCRF-CEM; assay: NCI 60 cell line screen (Leukemia); type: cell-based, human
[15] = test system: SF539; assay: NCI 60 cell line screen (CNS Cancer); type: cell-based, human
[16] = test system: BT-549; assay: NCI 60 cell line screen (Breast Cancer); type: cell-based, human
[17] = test system: IGROV1; assay: NCI 60 cell line screen (Ovarian Cancer); type: cell-based, human
[18] = test system: SK-OV-3; assay: NCI 60 cell line screen (Ovarian Cancer); type: cell-based, human
[19] = test system: MDA-MB-231 human breast cancer cells; assay: alamarBlue cell viability assay; type: cell-based; conditions: Homo sapiens, MDA-MB-231, 72 h, read-out: Antiproliferative Activity MDA-MB-231 Cells IC50
[20] = test system: MCF-7 human breast cancer cells; assay: alamarBlue cell viability assay; type: cell-based; conditions: 72 h; for IC50: alamarBlue, read-out: Antiproliferative Activity MCF-7 Cells IC50
[21] = test system: RPMI-8226; assay: NCI 60 cell line screen (Leukemia); type: cell-based, human
[22] = test system: HOP-92; assay: NCI 60 cell line screen (Non-Small Cell Lung Cancer); type: cell-based, human
[23] = test system: UO-31; assay: NCI 60 cell line screen (Renal Cancer); type: cell-based, human
[24] = test system: NCI-H460; assay: NCI 60 cell line screen (Non-Small Cell Lung Cancer); type: cell-based, human

**Q.** For COc1ccc(C(c2cc(OC)c(OC)c(OC)c2)n2ccnc2)cc1O (stereo not shown) [21l, 5-((1H-Imidazol-1-yl)(3,4,5-Trimethoxyphenyl)Methyl)-2-Methoxyphenol], which GI50 ([1]; Homo sapiens, UACC-62, NCI 5 dose assay) is on record?
**A.** 668 nM

**Q.** And the Growth percentage ([1]; UACC-62, single dose 10 µM)?
**A.** 36.48%

**Q.** What about the GI50 ([2]; Homo sapiens, NCI 5 dose assay) of the same compound?
**A.** 182 nM

**Q.** What about the Growth percentage ([2]; single dose 10 µM) of the same compound?
**A.** 8.48%

**Q.** And the GI50 ([3]; Homo sapiens, OVCAR-3, NCI 5 dose assay)?
**A.** 264 nM

**Q.** And the Growth percentage ([3]; OVCAR-3, single dose 10 µM)?
**A.** -9.52%

**Q.** What about the GI50 ([4]; Homo sapiens, NCI 5 dose assay) of the same compound?
**A.** 836 nM

**Q.** What about the Growth percentage ([4]; single dose 10 µM) of the same compound?
**A.** 12.80%

**Q.** What about the GI50 ([5]; Homo sapiens, NCI 5 dose assay) of the same compound?
**A.** 414 nM

**Q.** And the Growth percentage ([5]; single dose 10 µM)?
**A.** 29.10%

**Q.** What about the GI50 ([6]; Homo sapiens, LOX IMV1, NCI 5 dose assay) of the same compound?
**A.** 523 nM

**Q.** And the Growth percentage ([6]; LOX IMV1, single dose 10 µM)?
**A.** 25.65%

**Q.** What about the Growth percentage ([7]; HT29, single dose 10 µM) of the same compound?
**A.** 5.94%

**Q.** What about the GI50 ([7]; Homo sapiens, HT-29, HT29, NCI 5 dose assay) of the same compound?
**A.** 312 nM

**Q.** And the GI50 ([8]; Homo sapiens, KM12, NCI 5 dose assay)?
**A.** 389 nM

**Q.** And the Growth percentage ([8]; KM12, single dose 10 µM)?
**A.** 17.05%

**Q.** And the GI50 ([9]; Homo sapiens, U-251, cell line printed AC, NCI 5 dose assay)?
**A.** 391 nM

**Q.** And the Growth percentage ([9]; U251, single dose 10 µM)?
**A.** 15.52%

**Q.** What about the viability at 48 h, 0.4 µM ([10]; 0.4 μM, 48 h) of the same compound?
**A.** ~100%

**Q.** And the viability at 48 h, 0.5 µM ([10]; 0.5 μM, 48 h)?
**A.** ~100%

**Q.** And the viability at 24 h, 1 µM ([10]; 1 μM, 24 h, read-out: cell viability)?
**A.** 73%

**Q.** And the viability at 48 h, 1 µM ([10]; 1 μM, 48 h, read-out: percentage of viable cells)?
**A.** 64%

**Q.** What about the viability at 72 h, 1 µM ([10]; 1 μM, 72 h, read-out: percentage of viable cells) of the same compound?
**A.** > 80%

**Q.** And the viability at 48 h, 10 µM ([10]; 10 μM, 48 h, read-out: percentage of viable cells)?
**A.** ~30%

**Q.** And the GI50 ([11]; Homo sapiens, PC-3, NCI 5 dose assay)?
**A.** 384 nM

**Q.** What about the Growth percentage ([11]; PC-3, single dose 10 µM) of the same compound?
**A.** 20.69%

**Q.** And the GI50 ([12]; Homo sapiens, SF-295, SF295, NCI 5 dose assay)?
**A.** 307 nM

**Q.** And the Growth percentage ([12]; SF295, single dose 10 µM)?
**A.** -3.02%

**Q.** What about the GI50 ([13]; Homo sapiens, NCI 5 dose assay) of the same compound?
**A.** 910 nM

**Q.** And the Growth percentage ([13]; single dose 10 µM)?
**A.** 37.55%

**Q.** What about the GI50 ([14]; Homo sapiens, NCI 5 dose assay) of the same compound?
**A.** 289 nM

**Q.** And the Growth percentage ([14]; single dose 10 µM)?
**A.** 6.97%

**Q.** What about the GI50 ([15]; Homo sapiens, SF-539, SF539, NCI 5 dose assay) of the same compound?
**A.** 217 nM

**Q.** What about the Growth percentage ([15]; SF539, single dose 10 µM) of the same compound?
**A.** 9.52%

**Q.** And the Growth percentage ([16]; BT-549, single dose 10 µM)?
**A.** -0.07%

**Q.** What about the GI50 ([16]; Homo sapiens, BT-549, NCI 5 dose assay) of the same compound?
**A.** 306 nM

**Q.** What about the GI50 ([17]; Homo sapiens, IGROV-1, IGROV1, NCI 5 dose assay) of the same compound?
**A.** 862 nM

**Q.** What about the Growth percentage ([17]; IGROV1, single dose 10 µM) of the same compound?
**A.** 36.42%

**Q.** What about the GI50 ([18]; Homo sapiens, SK-OV-3, NCI 5 dose assay) of the same compound?
**A.** 465 nM

**Q.** And the Growth percentage ([18]; SK-OV-3, single dose 10 µM)?
**A.** 21.78%

**Q.** What about the IC50 [19] of the same compound?
**A.** 237 ± 40 nM

**Q.** And the IC50 [20]?
**A.** 132 ± 7 nM

**Q.** What about the IC50 ([20]; Homo sapiens, MCF7, 72 h) of the same compound?
**A.** 130 nM

**Q.** And the viability at 1 µM ([20]; Homo sapiens, MCF7, 1 μM, read-out: cell viability (viable cells))?
**A.** 31%

**Q.** And the GI50 ([21]; Homo sapiens, RPMI-8226, NCI 5 dose assay)?
**A.** 385 nM

**Q.** And the Growth percentage ([21]; RPMI-8226, single dose 10 µM)?
**A.** 18.86%

**Q.** And the Growth percentage ([22]; HOP-92, single dose 10 µM)?
**A.** 25.77%

**Q.** And the GI50 ([22]; Homo sapiens, HOP-92, NCI 5 dose assay)?
**A.** 28.6 µM

**Q.** And the GI50 ([23]; Homo sapiens, UO-31, NCI 5 dose assay)?
**A.** 883 nM

**Q.** And the Growth percentage ([23]; UO-31, single dose 10 µM)?
**A.** 61.96%

**Q.** What about the GI50 ([24]; Homo sapiens, NCI-H460, NCI 5 dose assay) of the same compound?
**A.** 377 nM

**Q.** And the Growth percentage ([24]; NCI-H460, single dose 10 µM)?
**A.** 6.11%
